# From article PMC10914731, “Homo-BacPROTAC-induced degradation of ClpC1 as a strategy against drug-resistant mycobacteria” (Nature Communications, 2024)
# “And” between values parts separate entries of the source, which are not always exact repeats. Identical values can stand only once. Like-named read-outs stand apart in the source and are kept apart here. *1 amine or outer side, *2 acyl side, *3 side chain or, on linkers, in order; H or OH if unused. Where a SMILES comes first, the peptide text is derived from it. [ ]: non-standard residue; d: D form. X3 = C#CCOc1ccc([C@@H](OC)[C@H](N[*:1])C(=O)[*:2])cc1; NMeTrp(1-Me) = CN[C@@H](Cc1cn(C)c2ccccc12)C(=O)O; NMeLeu(5-OH,4R) = CN[C@@H](C[C@@H](C)CO)C(=O)O; Phe(βR-OMe) = CO[C@H](c1ccccc1)[C@H](N)C(=O)O; Trp(1-Me) = Cn1cc(C[C@H](N)C(=O)O)c2ccccc21; NMeL = CN[C@@H](CC(C)C)C(=O)O
# Key:
# [1] = system: M. tuberculosis H37Rv (ATCC 27294); assay: microbe, parasite or virus in culture; type: cell-based; conditions: Mycobacterium tuberculosis
# [2] = biological target: ClpC1 NTD protein (M. tuberculosis) (Mycobacterium tuberculosis, UniProt P9WPC9); assay: biochemical; type: binding
# in vitro = conditions: human; for efflux ratio: Caco-2
# Summary of the method: (§1)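 Values are bidirectional Caco-2 apparent permeabilities, P(A−B) and P(B−A), given in 10^-6 cm s-1. The efflux ratio divides P(B−A) by P(A−B), and intrinsic permeability averages the two directions.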
# Caco-2 monolayers = assay: in vitro; conditions: human, Caco-2
# Summary of the method: as §1
# [3] = type: in vitro ADME, Human; conditions: human, pH 7.4
# [4] = type: in vitro ADME, Mice; conditions: for Microsomal Stability Mice: clearance in microsomes
# Summary of the method: (§2)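 Clearance, expressed as % liver blood flow (%Qh), derived by the well-stirred model from first-order half-lives. Depletion monitored by HPLC-MS/MS in acetonitrile-stopped samples over time; 37 °C, NADPH 1 mM, microsomes 0.5 mg/ml, compound 1 µmol/l, Tris-HCl pH 7.5 with MgCl2.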
# Msm 700084 = assay: microbe, parasite or virus in culture; type: cell-based
# Msm 607 = assay: microbe, parasite or virus in culture; type: cell-based
# [5] = type: in vitro ADME, Rat; conditions: rat, pH 7.4
# [6] = Hepatocyte stability, mice; type: in vitro ADME; conditions: mouse, pH 7.4
# Summary of the method: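 Clearance, expressed as % of liver blood flow (% Qh), derived from parent-compound half-life by the well-stirred model, with HPLC-MS/MS quantitation after acetonitrile quench. Test compound at 1 µM final added to mouse hepatocyte suspension in 50% serum after 15–30 min acclimation at 37 °C; six samples over up to 6 h.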
# [7] = Microsomal stability, human; type: in vitro ADME; conditions: for Microsomal Stability Human: clearance in microsomes
# Summary of the method: as §2
# [8] = type: in vitro ADME, Rat; conditions: for Microsomal Stability Rat: clearance in microsomes
# Summary of the method: as §2
# [9] = Mtb H37Rv (Supplementary Table 2), read-out: MIC Mtb
# [10] = single determinations, read-out: Mtb MIC
# [11] = SPR (Supplementary Table 1), read-out: KD ClpC1-NTD Mean ± SD
# [12] = SPR, single independent measurements
# [13] = SPR, single independent measurements, read-out: KD ClpC1-NTD
# [14] = SPR, single independent measurements, read-out: koff ClpC1-NTD
# [15] = Caco-2, Caco-2 permeability P (A-B)
# [16] = Mycolicibacterium smegmatis, 700084, single determinations, read-out: Msm 700084 MIC
# [17] = Mycolicibacterium smegmatis, 700084, read-out: MIC Msm 700084
# [18] = Mycolicibacterium smegmatis, 607, read-out: MIC Msm 607
# [19] = Mycolicibacterium smegmatis, 607, read-out: Msm 607 MIC, single determinations
# Sequence of ClpC1 NTD protein (M. tuberculosis) (P9WPC9 1-156, looked up, natural form): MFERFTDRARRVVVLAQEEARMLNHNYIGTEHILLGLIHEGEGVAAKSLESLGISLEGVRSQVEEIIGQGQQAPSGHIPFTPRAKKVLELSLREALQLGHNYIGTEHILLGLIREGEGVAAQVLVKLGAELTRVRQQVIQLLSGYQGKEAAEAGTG
SMILES,"MIC [1, 9] [µM]","MIC [1, 10] [µM]","Kd [2, 11] [nM]","Kd [2, 13]","Papp B→A (in vitro; Caco-2, CACO permeability PEBA) [×10⁻⁶ cm/s]",Papp A→B (in vitro; [15]) [×10⁻⁶ cm/s],Caco-2 Int. Perm (Caco-2 monolayers),Hepatocyte Stability Human QH [3] [%],Microsomal Stability Mouse QH [4] [%],Microsomal Stability Mice [4] [%Qh],MIC (Msm 700084; [16]) [µM],MIC (Msm 700084; [17]) [µM],MIC (Msm 607; [18]) [µM],MIC (Msm 607; [19]) [µM],Hepatocyte Rat [5] [%Qh],Hepatocyte Stability Rat QH [5] [%],Hepatocyte Mice [6] [%Qh],Hepatocyte Stability Mouse QH [6] [%],Microsomal Stability Human QH [7] [%],Microsomal Stability Human [7] [%Qh],also measured
"C#CCOc1ccc([C@@H](OC)[C@@H]2NC(=O)[C@H](C)NC(=O)[C@H](C[C@@H](C)CO)N(C)C(=O)[C@H](Cc3cn(C)c4ccccc34)NC(=O)[C@H](C(C)C)NC(=O)[C@H](CC(C)C)N(C)C(=O)[C@H](C(C)C)NC2=O)cc1 [SI-38] (cyclo(A[X3]V[NMeL]V[Trp(1-Me)][NMeLeu(5-OH,4R)]))",1.6,1.56,5.6 ± 0.6,6 nM and 5.19 nM,18,< 0.2,9.1,19.299,72.800,73,12.5,12.5,25,25,37,37.130,15,15.001,83.600,84,"koff ClpC1-NTD [2, 12]: 0.04 s⁻¹; koff [2, 14]: 0.06 s⁻¹; Papp B→A (in vitro; Caco-2, Caco-2 permeability P (B-A)): 18 ×10⁻⁶ cm/s; Hepatocyte Human [3]: 19 %Qh; Microsomal Stability Rat QH [8]: 58.700%; Microsomal Stability Rat [8]: 59 %Qh"
"CO[C@H](c1ccccc1)[C@@H]1NC(=O)[C@H](C)NC(=O)[C@H](C[C@@H](C)CO)N(C)C(=O)[C@H](Cc2cn(C)c3ccccc23)NC(=O)[C@H](CCC(=O)N(C)C)NC(=O)[C@H](CC(C)C)N(C)C(=O)[C@H](C(C)C)NC1=O [SI-74] (cyclo(A[Phe(βR-OMe)]V[NMeL]E(NMe2)[Trp(1-Me)][NMeLeu(5-OH,4R)]))",3.1,3.12,4 ± 2,3.28 nM and 5.58 nM,3.4,< 0.5,1.7,12.386,83.700,84,6.25,9.4 ± 4.4,0.8,0.78,49,48.537,38,37.632,85.000,61,"efflux ratio (in vitro): > 6; Papp A→B (in vitro; Caco-2, CACO permeability PEAB): < 0.46 ×10⁻⁶ cm/s; Hepatocyte Human [3]: 12 %Qh; MIC (Msm 700084; single determinations, read-out: Msm 700084 MIC): 12.500 µM; Microsomal Stability Rat QH [8]: 60.700%; Microsomal Stability Rat [8]: 85 %Qh"
"CO[C@H](c1ccccc1)[C@@H]1NC(=O)[C@H](C)NC(=O)[C@H](C[C@@H](C)CO)N(C)C(=O)[C@H](Cc2cn(C)c3ccccc23)N(C)C(=O)[C@H](CCC(=O)N(C)C)NC(=O)[C@H](CC(C)C)N(C)C(=O)[C@H](C(C)C)NC1=O [SI-76] (cyclo(A[Phe(βR-OMe)]V[NMeL]E(NMe2)[NMeTrp(1-Me)][NMeLeu(5-OH,4R)]))",6.3,6.25,26 ± 6,21.4 nM and 30.5 nM,10,< 0.1,4.3,19.852,>88.400,> 88,25,25,12.5,12.5,52,52.287,23,23.483,>88.400,> 88,"koff ([2]; SPR dissociation rate constant, read-out: koff ClpC1-NTD Mean ± SD): 0.06 s⁻¹; koff ClpC1-NTD [2, 12]: 6E-2 6E-2 1/s; koff [2, 14]: 0.06 s⁻¹; efflux ratio (in vitro): > 84; Papp A→B (in vitro; Caco-2, CACO permeability PEAB): < 0.11 ×10⁻⁶ cm/s; Microsomal Stability Rat QH [8]: 78.000%; Microsomal Stability Rat [8]: 78 %Qh"
